Drawing on US9303045B2, “5-HT3 receptor antagonists” (Takeda Pharmaceutical Company Limited, priority 2013, dated 2016), this text covers IC50 for 26 compounds.

In general, pIC50 refers to the negative decadic logarithm of the IC50, by convention in mol/L.

pIC50: −log10 of the molar value. A value given as a limit tells only on which side of the number the result lay.

This assay deals with 5HT3a receptor expressed in HEK-293T cells (Homo sapiens (Human), UniProt P46098). As to the kind of experiment: Inhibition of Ca flux activity of 5HT3 in vitro assay. The assay is classed as cell-based. The note with it: calcium flux, 5HT 216 nM, approximate values. As for the experimental part: Inhibition of Ca Flux Activity of 5HT3 In Vitro Assay
The 5HT3 antagonist activity of the compounds of the invention was determined by measuring the ability of the compounds to inhibit the calcium flux activity of […] receptor expressed in HEK-293T cells. HEK-293T cells were transfected with the 5HT3a expression construct using Xtreme Gene 9 (Roche) in 150 mm tissue culture treated plates and incubated for 24 hours at 37° C. Cells were then split and plated at a density of 60K cells/well in poly-lysine coated, black 96-well plates with clear bottoms (BD BioSciences) and incubated overnight at 37° C. Growth media was removed and cells loaded with 200 uL calcium indicator dye in HBSS containing 20 mM HEPES (Calcium 5 Assay kit, Molecular Devices) and incubated at 37° C. for 1 hour. While cells were incubating, the 10× antagonist and agonist/antagonist addition plates were made. For 10× antagonist plate: half log serial dilutions (final concentrations range from 10^−7 through 10^−10 with the bottom well a negative, no ligand control) were made from test compounds in DMSO at a 1000× concentration and then diluted to 10× in HBSS/20 mM HEPES. For addition plate: 5HT was diluted to 100× in HBSS/20 mM HEPES (final concentration in the assay—216 nM) and 15 uL was added to each well of the addition plate, 15 uL of 10× compound was also added to the addition plate, and finally 120 uL of HBSS/20 mM HEPES (for a total of 150 uL). Cells were then removed from the incubator and equilibrated to room temperature for 10 minutes, then 22.5 uL of 10× test compounds were added in triplicate to the plates and incubated at room temperature for 10 minutes (Tropisetron was used as a positive control in every assay). Test plate and addition plate were loaded into the FlexStation III (Molecular Devices), and using the fluidics, 22.5 uL compound additions were made (at t=˜17 seconds), and fluorescence was measured for 90 seconds, reading every 2.2 seconds. Data sets were analyzed as max minus min using Software Max Pro (Molecular Devices). IC50 curves were generated using non-linear regression in GraphPad Prism.
(In general: Calcium flux is commonly read through the fluorescence of an indicator in the cells.)

Chain of 5HT3a receptor expressed in HEK-293T cells (P46098 24-478): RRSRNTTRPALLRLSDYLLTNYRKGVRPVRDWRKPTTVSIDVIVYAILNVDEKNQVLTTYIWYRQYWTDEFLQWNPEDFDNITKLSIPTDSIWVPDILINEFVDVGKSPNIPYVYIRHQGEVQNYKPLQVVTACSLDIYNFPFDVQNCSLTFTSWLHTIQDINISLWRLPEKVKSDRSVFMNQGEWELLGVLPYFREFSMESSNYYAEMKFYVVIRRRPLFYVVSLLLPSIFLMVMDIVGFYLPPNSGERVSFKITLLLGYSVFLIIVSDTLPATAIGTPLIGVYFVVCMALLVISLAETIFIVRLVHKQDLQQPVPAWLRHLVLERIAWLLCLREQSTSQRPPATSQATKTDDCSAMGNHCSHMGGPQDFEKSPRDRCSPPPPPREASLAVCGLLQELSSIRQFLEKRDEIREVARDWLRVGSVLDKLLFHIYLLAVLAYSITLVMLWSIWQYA

On to `CN1C2CCCC1CC(OC(=O)c1cn(CC(F)F)c3ncccc13)C2` [Example 61, (1R,3R,5S)-9-methyl-9-azabicyclo[3.3.1]nonan-3-yl 1-(2,2-difluoroethyl)-1H-pyrrolo[2,3-b]pyridine-3-carboxylate, 2,2,2-trifluoroacetate], for which the negative logarithm of the IC50 (pIC50) is 9.00.
The result for `CN1C2CCC1CC(NC(=O)c1nn(S(C)(=O)=O)c3ccccc13)C2` [Example 62, N-((1R,3R,5S)-8-methyl-8-azabicyclo[3.2.1]octan-3-yl)-1-(methylsulfonyl)-1H-indazole-3-carboxamide, 2,2,2-trifluoroacetate] reads 9.12; that for `CN1[C@@H]2COC[C@H]1CC(NC(=O)c1cn(CC(F)F)c3ccc(F)cc13)C2` (stereo partly drawn) [Example 63, 1-(2,2-difluoroethyl)-5-fluoro-N-((1R,5S,7S)-9-methyl-3-oxa-9-azabicyclo[3.3.1]nonan-7-yl)-1H-indole-3-carboxamide, 2,2,2-trifluoroacetate], 9.31.
The result for `CN1C2COCC1CC(NC(=O)c1cn(CC(F)F)c3ncccc13)C2` [Example 64, 1-(2,2-difluoroethyl)-N-((1R,5S,7S)-9-methyl-3-oxa-9-azabicyclo[3.3.1]nonan-7-yl)-1H-pyrrolo[2,3-b]pyridine-3-carboxamide, 2,2,2-trifluoroacetate] reads 8.84; that for `O=C(NC1C[C@H]2COC[C@@H](C1)N2)c1nn(CC(F)F)c2ccccc12` (stereo partly drawn) [Example 65, N-((1R,5S,7S)-3-oxa-9-azabicyclo[3.3.1]nonan-7-yl)-1-(2,2-difluoroethyl)-1H-indazole-3-carboxamide, 2,2,2-trifluoroacetate], 8.39; that for `CN1[C@@H]2COC[C@H]1CC(NC(=O)c1nn(CC(F)F)c3ncccc13)C2` (stereo partly drawn) [Example 66, 1-(2,2-difluoroethyl)-N-((1R,5S,7S)-9-methyl-3-oxa-9-azabicyclo[3.3.1]nonan-7-yl)-1H-pyrazolo[3,4-b]pyridine-3-carboxamide, 2,2,2-trifluoroacetate], 8.97.
Then `O=C(N[C@H]1CN2CCC1CC2)c1cn(CC(F)F)c2ncccc12` [Example 67, (R)-1-(2,2-difluoroethyl)-N-(quinuclidin-3-yl)-1H-pyrrolo[2,3-b]pyridine-3-carboxamide, 2,2,2-trifluoroacetate], with under 6.00; and `CN1C2COCC1CC(NC(=O)c1cn(C(C)(C)C(F)(F)F)c3ncccc13)C2` [Example 69, N-((1R,5S,7S)-9-methyl-3-oxa-9-azabicyclo[3.3.1]nonan-7-yl)-1-(1,1,1-trifluoro-2-methylpropan-2-yl)-1H-pyrrolo[2,3-b]pyridine-3-carboxamide, 2,2,2-trifluoroacetate], with 8.97; and `CN1[C@@H]2CC[C@H]1CC(OC(=O)c1cn(CC(F)F)c3ncccc13)C2` (stereo partly drawn) [Example 72, (1R,3R,5S)-8-methyl-8-azabicyclo[3.2.1]octan-3-yl 1-(2,2-difluoroethyl)-1H-pyrrolo[2,3-b]pyridine-3-carboxylate, 2,2,2-trifluoroacetate], with 8.44.
For `Cc1c(C(=O)OC2C[C@H]3CC[C@@H](C2)N3C)c2ccccc2n1CC(F)F` (stereo partly drawn) [Example 73, (1R,3R,5S)-8-methyl-8-azabicyclo[3.2.1]octan-3-yl 1-(2,2-difluoroethyl)-2-methyl-1H-indole-3-carboxylate, 2,2,2-trifluoroacetate], the negative-log IC50 (pIC50) is 8.50.
Then `CN1[C@@H]2CC[C@H]1CC(NC(=O)c1cn(S(C)(=O)=O)c3ccccc13)C2` (stereo partly drawn) [Example 74, N-((1R,3R,5S)-8-methyl-8-azabicyclo[3.2.1]octan-3-yl)-1-(methylsulfonyl)-1H-indole-3-carboxamide, 2,2,2-trifluoroacetate], with 9.38; and `CN1[C@@H]2CC[C@H]1CC(NC(=O)c1cn(CC(F)F)c3ccc(F)cc13)C2` (stereo partly drawn) [Example 75, 1-(2,2-difluoroethyl)-5-fluoro-N-((1R,3R,5S)-8-methyl-8-azabicyclo[3.2.1]octan-3-yl)-1H-indole-3-carboxamide, 2,2,2-trifluoroacetate], with 8.50.
For `CN1[C@@H]2CC[C@H]1CC(NC(=O)c1cn(CC(F)F)c3ncccc13)C2` (stereo partly drawn) [Example 76, 1-(2,2-difluoroethyl)-N-((1R,3R,5S)-8-methyl-8-azabicyclo[3.2.1]octan-3-yl)-1H-pyrrolo[2,3-b]pyridine-3-carboxamide, 2,2,2-trifluoroacetate], the pIC50 is 8.91.
Then `CN1[C@@H]2CCC[C@H]1CC(NC(=O)c1cn(CC(F)F)c3ncccc13)C2` (stereo partly drawn) [Example 77, 1-(2,2-difluoroethyl)-N-((1R,3R,5S)-9-methyl-9-azabicyclo[3.3.1]nonan-3-yl)-1H-pyrrolo[2,3-b]pyridine-3-carboxamide, 2,2,2-trifluoroacetate], with 7.98.
The result for `CS(=O)(=O)n1cc(C(=O)NC2C[C@H]3COC[C@@H](C2)N3)c2cc(F)ccc21` (stereo partly drawn) [Example 78, N-((1R,5S,7S)-3-oxa-9-azabicyclo[3.3.1]nonan-7-yl)-5-fluoro-1-(methylsulfonyl)-1H-indole-3-carboxamide, 2,2,2-trifluoroacetate] reads 8.32; that for `CN1C2COCC1CC(NC(=O)c1cn(CCF)c3ccccc13)C2` [Example 79, 1-(2-fluoroethyl)-N-((1R,5S,7S)-9-methyl-3-oxa-9-azabicyclo-[3.3.1]nonan-7-yl)-1H-indole-3-carboxamide, 2,2,2-trifluoroacetate], 9.39.
The result for `CN1[C@@H]2COC[C@H]1CC(NC(=O)c1cn(C(F)C(F)(F)F)c3ncccc13)C2` (stereo partly drawn) [Example 81, N-((1R,5S,7S)-9-methyl-3-oxa-9-azabicyclo[3.3.1]nonan-7-yl)-1-(1,2,2,2-tetrafluoroethyl)-1H-pyrrolo[2,3-b]pyridine-3-carboxamide, 2,2,2-trifluoroacetate] reads 8.84; that for `O=C(NC1C[C@H]2COC[C@@H](C1)N2)c1cn(CC(F)F)c2ncccc12` (stereo partly drawn) [Example 82, N-((1R,5S,7S)-3-oxa-9-azabicyclo[3.3.1]nonan-7-yl)-1-(2,2-difluoroethyl)-1H-pyrrolo[2,3-b]pyridine-3-carboxamide, 2,2,2-trifluoroacetate], under 6.00; that for `CN1[C@@H]2CC[C@H]1CC(OC(=O)c1cn([C@@H]3CCOC3)c3ccccc13)C2` (stereo partly drawn) [Example 83, (1R,3R,5S)-8-methyl-8-azabicyclo[3.2.1]octan-3-yl 1-((R)-tetrahydrofuran-3-yl)-1H-indole-3-carboxylate, 2,2,2-trifluoroacetate], 8.98.
Turning to `CN1[C@@H]2CC[C@H]1CC(OC(=O)c1c3n(c4ccccc14)CCCCO3)C2` (stereo partly drawn) [Example 84, (1R,3R,5S)-8-methyl-8-azabicyclo[3.2.1]octan-3-yl 2,3,4,5-tetrahydro-[1,3]oxazepino[3,2-a]indole-11-carboxylate, 2,2,2-trifluoroacetate], the pIC50 was 8.79.
In the case of `CN1[C@@H]2CC[C@H]1CC(OC(=O)c1c3n(c4ccccc14)CCCO3)C2` (stereo partly drawn) [Example 85, (1R,3R,5S)-8-methyl-8-azabicyclo[3.2.1]octan-3-yl 3,4-dihydro-2H-[1,3]oxazino[3,2-a]indole-10-carboxylate, 2,2,2-trifluoroacetate], the negative logarithm of the IC50 (pIC50) was 8.98.
Then `CN1[C@@H]2CC[C@H]1CC(OC(=O)c1cn(S(C)(=O)=O)c3ccc(F)cc13)C2` (stereo partly drawn) [Example 86, (1R,3R,5S)-8-methyl-8-azabicyclo[3.2.1]octan-3-yl 5-fluoro-1-(methylsulfonyl)-1H-indole-3-carboxylate, 2,2,2-trifluoroacetate], with 8.61.
Then `CN1[C@@H]2CCC[C@H]1CC(OC(=O)c1cn(CCF)c3ccccc13)C2` (stereo partly drawn) [Example 87, (1R,3R,5S)-9-methyl-9-azabicyclo[3.3.1]nonan-3-yl 1-(2-fluoroethyl)-1H-indole-3-carboxylate, 2,2,2-trifluoroacetate], with 9.74; and `Cc1c(C(=O)OC2C[C@H]3CCC[C@@H](C2)N3C)c2ccccc2n1CCF` (stereo partly drawn) [Example 88, (1R,3R,5S)-9-methyl-9-azabicyclo[3.3.1]nonan-3-yl 1-(2-fluoroethyl)-2-methyl-1H-indole-3-carboxylate, 2,2,2-trifluoroacetate], with 9.66; and `CN1[C@@H]2CCC[C@H]1CC(OC(=O)c1cn(CC(F)(F)F)c3ccc(F)cc13)C2` (stereo partly drawn) [Example 89, (1R,3R,5S)-9-methyl-9-azabicyclo[3.3.1]nonan-3-yl 5-fluoro-1-(2,2,2-trifluoroethyl)-1H-indole-3-carboxylate, 2,2,2-trifluoroacetate], with 9.18.
Then `CN1[C@@H]2CC[C@H]1C[C@@H](NC(=O)c1nn(CC(F)F)c3ccccc13)C2` [Example 90, 1-(2,2-difluoroethyl)-N-((1R,3R,5S)-8-methyl-8-azabicyclo-[3.2.1]octan-3-yl)-1H-indazole-3-carboxamide, 2,2,2-trifluoroacetate], with 9.12.
